{"source": "patent US20180236080A1", "about": "“FAST-ACTING INSULIN COMPOSITION COMPRISING A CITRIC ACID SALT” (ADOCIA, priority 2017, published 2018)", "key": {"[1]": {"biological_target": "hexameric R6 form of insulin lispro (Homo sapiens, UniProt P01308, K53P/P52K)", "sequence (P01308 25-54 P52K/K53P limits assumed)": "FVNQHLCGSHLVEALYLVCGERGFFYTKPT", "sequence (P01308 90-110 limits assumed)": "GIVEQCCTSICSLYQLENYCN", "details": "insulin lispro 100 IU/ml, FIG. 5 and FIG. 6", "text": "The loss of the signal at 240 nm is related to a destabilization of the hexameric R6 form and the passage from the R6 form to the T6 form."}, "[2]": {"biological_target": "hexameric form R6 of insulin aspart (Homo sapiens, UniProt P01308, P52D)", "sequence (P01308 25-54 P52D limits assumed)": "as the sequence (P01308 25-54 P52K/K53P limits assumed) above, with K28D, P29K counted along it", "details": "insulin aspart 100 U/ml, FIG. 9 and FIG. 10", "text": "The loss of the signal at 240 nm is related to a destabilization of the hexameric form R6 and the passage from R6 form to T6 form.\nFIG. 9 describes the CD signal at 240 nm (deg·cm^2·dmol^−1) on the ordinate and on the abscissa:\nCircular dichroism has been performed at 240 nm on the following compositions (FIG. 10):"}, "[3]": {"details": "at 4° C.; cited from earlier work"}, "[4]": {"details": "cited from earlier work"}}, "data": [{"compound": "O=C(O)CN(CCN(CC(=O)O)CC(=O)O)CC(=O)O", "note": "[EDTA]", "values": [{"measurement": "Impact on the CD signal at 240 nm / R6 form of insulin lispro", "setting": "[1]", "value": "completely deconstructs the R6 form"}, {"measurement": "Impact on the CD signal at 240 nm / R6 form of insulin aspart", "setting": "[2]", "value": "completely deconstructs the R6 form"}]}, {"compound": "human insulin", "values": [{"measurement": "Stability in the form of hexamers", "setting": "[3]", "value": "~2", "unit": "years"}, {"measurement": "Delay of action compared to a fast-acting insulin analog", "setting": "[4]; dissociation of hexamers into dimers and monomers, Brange J. et al. 1999", "value": "~20", "unit": "minutes"}, {"measurement": "Time after which a hypoglycemic effect occurs", "setting": "[4]; injected subcutaneously", "value": 60, "unit": "min"}]}]}
